Experiments:
Adrenergic β2 [1] = molecular target: T1, Adrenergic β2 (Homo sapiens, UniProt P07550); assay: Adrenergic β2 mediated cAMP production in H292 cells (AlphaScreen), concentration response; type: cell-based; conditions: for EC50: 60 min, 300 μM rolipram, read-out: β2 pEC50 (converted); for β2 Intrinsic Activity: fraction relative to the maximum activity determined for formoterol
T1 construct: Adherent H292 cells are removed from tissue culture flasks by treatment with Accutase™ cell detachment solution; endogenous in cells; host or cells: H292 cells
Summary of the method: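 Intracellular cAMP in lysates read by AlphaScreen, calibrated with cAMP standards; curves fitted for pEC50, with intrinsic activity as a fraction of formoterol's maximum. Agonist exposure 60 min at room temperature after 10 min rolipram (300 μM final), 1% DMSO, HEPES-buffered HBSS pH 7.4.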

Adrenergic β2 [2] = molecular target: T1, Adrenergic β2; assay: Adrenergic β2 mediated cAMP production in H292 cells, single concentration 1 μM; type: cell-based; conditions: NCI-H292, 1 μM compound, cAMP as percentage of the maximum response generated by 1E-07M formoterol, read-out: β2 % effect @1 uM
Summary of the method: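 H292 cells pretreated with rolipram (300 μM final) 10 min, then compound at 1 μM final, 1% DMSO, 60 min at room temperature in HBSS/10 mM HEPES pH 7.4/5 mM glucose. Lysate cAMP quantified by AlphaScreen against a standard curve, as % of maximal response to 1E-07M formoterol.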

[3] = molecular target: T2, human muscarinic acetylcholine M3 receptor (Homo sapiens, UniProt P20309); assay: Muscarinic 3 receptor binding assay ([3H]NMS competition, SPA), pIC50; conditions: [3H]NMS 0.1 nM, CHO-K1 cell membranes expressing human M3 receptor
T2 construct: expressed in transfected cells; host or cells: CHO-K1 (Chinese Hamster Ovary) cell membranes
Summary of the method: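 SPA beads precoated with human M3-expressing CHO-K1 membranes were incubated 16 h at room temperature with serially diluted compound and 0.1 nM [3H]NMS (pH 7.4 HEPES buffer, MgCl2, BSA, 1% DMSO). Atropine (1 μM) defined non-specific binding; pIC50 is the 50% reduction in specific binding.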

[4] = molecular target: T2, human muscarinic acetylcholine M3 receptor; assay: Muscarinic 3 receptor binding assay ([3H]NMS competition, SPA), single concentration 1 μM; conditions: 1 μM compound; % inhibition specific [3H]-NMS binding
Summary of the method: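 CHO-K1 membranes expressing human M3 on SPA beads, competition with 0.1 nM [3H]NMS (quarter Kd) in 20 mM HEPES pH 7.4, 5 mM MgCl2, 0.1% BSA, 1% DMSO; compound at 1 μM. 16 h at room temperature. Value is % inhibition of specific binding, non-specific defined with 1 μM atropine.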

T2 sequence (P20309 whole entry): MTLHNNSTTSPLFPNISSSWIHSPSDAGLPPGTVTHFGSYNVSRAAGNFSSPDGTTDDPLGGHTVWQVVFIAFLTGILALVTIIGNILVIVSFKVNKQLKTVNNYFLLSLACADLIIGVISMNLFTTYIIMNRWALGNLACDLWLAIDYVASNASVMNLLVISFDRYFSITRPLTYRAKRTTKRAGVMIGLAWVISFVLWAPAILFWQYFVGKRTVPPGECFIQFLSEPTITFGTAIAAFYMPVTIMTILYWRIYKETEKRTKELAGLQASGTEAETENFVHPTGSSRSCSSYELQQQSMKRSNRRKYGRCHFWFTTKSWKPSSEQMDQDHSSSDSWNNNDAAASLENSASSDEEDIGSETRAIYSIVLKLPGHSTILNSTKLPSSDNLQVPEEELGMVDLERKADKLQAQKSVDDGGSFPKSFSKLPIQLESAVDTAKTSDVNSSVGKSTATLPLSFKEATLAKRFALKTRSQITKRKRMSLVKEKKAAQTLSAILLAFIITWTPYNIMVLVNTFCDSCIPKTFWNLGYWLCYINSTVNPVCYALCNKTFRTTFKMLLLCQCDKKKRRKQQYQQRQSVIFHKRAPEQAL
T1 sequence (P07550 whole entry): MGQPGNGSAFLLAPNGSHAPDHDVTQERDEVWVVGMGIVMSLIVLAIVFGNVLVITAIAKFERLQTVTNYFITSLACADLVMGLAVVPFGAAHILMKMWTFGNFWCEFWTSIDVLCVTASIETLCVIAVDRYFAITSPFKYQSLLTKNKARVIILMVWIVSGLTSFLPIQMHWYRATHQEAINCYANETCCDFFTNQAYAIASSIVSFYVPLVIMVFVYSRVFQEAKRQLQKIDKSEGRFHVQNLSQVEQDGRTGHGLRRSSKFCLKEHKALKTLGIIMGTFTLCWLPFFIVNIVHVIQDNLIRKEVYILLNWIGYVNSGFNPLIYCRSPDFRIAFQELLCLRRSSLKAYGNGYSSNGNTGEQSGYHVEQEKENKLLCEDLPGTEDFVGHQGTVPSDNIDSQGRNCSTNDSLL

EC50 (Adrenergic β2 [1]) [nM]	β2 Intrinsic Activity (Adrenergic β2 [1])	percent of formoterol maximum response at 1 µM (Adrenergic β2 [2]) [%]	IC50 [3] [nM]	inhibition at 1 µM [4] [%]	SMILES
79.4	0.9	96	0.398	100	O=C1COc2c(CCNCCN(C(=O)CCOCCc3cccc(CN4CCC5(CC4)CN(C(=O)c4cc6ccccn6n4)CCO5)c3)C3CCCCC3)ccc(O)c2N1 [Example 146, N-Cyclohexyl-N-(2-(2-(5-hydroxy-3-oxo-3,4-dihydro-2H-benzo[b][1,4]oxazin-8-yl)ethylamino)ethyl)-3-(3-((4-(pyrazolo[1,5-a]pyridine-2-carbonyl)-1-oxa-4,9-diazaspiro[5.5]undecan-9-yl)methyl)phenethoxy)propanamide]
50.1	1.0	102	0.631	100	O=C1COc2c(CCNCCN(C(=O)CCOCCc3cccc(CN4CCC5(CC4)CN(C(=O)c4ccc(Cl)s4)CCO5)c3)C3CCCCC3)ccc(O)c2N1 [Example 106, 3-(3-((4-(5-Chlorothiophene-2-carbonyl)-1-oxa-4,9-diazaspiro[5.5]undecan-9-yl)methyl)phenethoxy)-N-cyclohexyl-N-(2-(2-(5-hydroxy-3-oxo-3,4-dihydro-2H-benzo[b][1,4]oxazin-8-yl)ethylamino)ethyl)propanamide]
126	0.9	92	0.2	100	Cc1csc(C(=O)N2CCOC3(CCN(Cc4cccc(CCOCCC(=O)N(CCNCCc5ccc(O)c6c5OCC(=O)N6)C5CCCCC5)c4)CC3)C2)c1 [Example 138, N-Cyclohexyl-N-(2-(2-(5-hydroxy-3-oxo-3,4-dihydro-2H-benzo[b][1,4]oxazin-8-yl)ethylamino)ethyl)-3-(3-((4-(4-methythiophene-2-carbonyl)-1-oxa-4,9-diazaspiro[5.5]undecan-9-yl)methyl)phenethoxy)propanamide]
158	>0.9	84	2	100	O=C1COc2c(CCNCCN(C(=O)CCOCCc3cccc(CN4CCC5(CC4)CN(C(=O)c4cnc6ccccc6n4)CCO5)c3)C3CCCCC3)ccc(O)c2N1 [Example 119, N-Cyclohexyl-N-(2-(2-(5-hydroxy-3-oxo-3,4-dihydro-2H-benzo[b][1,4]oxazin-8-yl)ethylamino)ethyl)-3-(3-((4-(quinoxaline-2-carbonyl)-1-oxa-4,9-diazaspiro[5.5]undecan-9-yl)methyl)phenethoxy)propanamide]
79.4	0.5	104	3.16	99	Cc1ccn2cc(C(=O)N3CCOC4(CCN(Cc5cccc(CCOCCC(=O)N(CCNCCc6ccc(O)c7c6OCC(=O)N7)C6CCCCC6)c5)CC4)C3)nc2c1 [Example 150, N-Cyclohexyl-N-(2-(2-(5-hydroxy-3-oxo-3,4-dihydro-2H-benzo[b][1,4]oxazin-8-yl)ethylamino)ethyl)-3-(3-((4-(7-methylimidazo[1,2-a]pyridine-2-carbonyl)-1-oxa-4,9-diazaspiro[5.5]undecan-9-yl)methyl)phenethoxy)propanamide]
		114		93	O=C1COc2c(CCNCCN(C(=O)CCOCCc3cccc(CN4CCC5(CC4)CN(C(=O)Cn4cnc6ccccc64)CCO5)c3)C3CCCCC3)ccc(O)c2N1 [Example 125, 3-(3-((4-(2-(1H-Benzo[d]imidazol-1-yl)acetyl)-1-oxa-4,9-diazaspiro[5.5]undecan-9-yl)methyl)phenethoxy)-N-cyclohexyl-N-(2-(2-(5-hydroxy-3-oxo-3,4-dihydro-2H-benzo[b][1,4]oxazin-8-yl)ethylamino)ethyl)propanamide]

Second part, the compound before the results:

SMILES	EC50 (Adrenergic β2 [1]) [nM]	β2 Intrinsic Activity (Adrenergic β2 [1])	percent of formoterol maximum response at 1 µM (Adrenergic β2 [2]) [%]	IC50 [3] [nM]	inhibition at 1 µM [4] [%]
CC(C)c1cc(C(=O)N2CCOC3(CCN(Cc4cccc(CCOCCC(=O)N(CCNCCc5ccc(O)c6c5OCC(=O)N6)C5CCCCC5)c4)CC3)C2)no1 [Example 147, N-Cyclohexyl-N-(2-(2-(5-hydroxy-3-oxo-3,4-dihydro-2H-benzo[b][1,4]oxazin-8-yl)ethylamino)ethyl)-3-(3-((4-(5-isopropylisoxazole-3-carbonyl)-1-oxa-4,9-diazaspiro[5.5]undecan-9-yl)methyl)phenethoxy)propanamide]	158	1.0	107	1.58	99
O=C1COc2c(CCNCCN(C(=O)CCOCCc3cccc(CN4CCC5(CC4)CN(C(=O)Cc4ccc6c(c4)OCO6)CCO5)c3)C3CCCCC3)ccc(O)c2N1 [Example 140, 3-(3-((4-(2-(Benzo[d][1,3]dioxol-5-yl)acetyl)-1-oxa-4,9-diazaspiro[5.5]undecan-9-yl)methyl)phenethoxy)-N-cyclohexyl-N-(2-(2-(5-hydroxy-3-oxo-3,4-dihydro-2H-benzo[b][1,4]oxazin-8-yl)ethylamino)ethyl)propanamide]	200	1.0	100	1	100
O=C1COc2c(CCNCCN(C(=O)CCOCCc3cccc(CN4CCC5(CC4)CN(C(=O)c4ccc(C(F)(F)F)cn4)CCO5)c3)C3CCCCC3)ccc(O)c2N1 [Example 149, N-Cyclohexyl-N-(2-(2-(5-hydroxy-3-oxo-3,4-dihydro-2H-benzo[b][1,4]oxazin-8-yl)ethylamino)ethyl)-3-(3-((4-(5-(trifluoromethyl)picolinoyl)-1-oxa-4,9-diazaspiro[5.5]undecan-9-yl)methyl)phenethoxy)propanamide]	126	1.0	90	0.501	99
O=C1COc2c(CCNCCN(C(=O)CCOCCc3cccc(CN4CCC5(CC4)CN(C(=O)CCOc4ccccc4)CCO5)c3)C3CCCCC3)ccc(O)c2N1 [Example 165, N-Cyclohexyl-N-(2-(2-(5-hydroxy-3-oxo-3,4-dihydro-2H-benzo[b][1,4]oxazin-8-yl)ethylamino)ethyl)-3-(3-((4-(3-phenoxypropanoyl)-1-oxa-4,9-diazaspiro[5.5]undecan-9-yl)methyl)phenethoxy)propanamide]	79.4	1.1	99	1	100
O=C1COc2c(CCNCCN(C(=O)CCOCCc3cccc(CN4CCC5(CC4)CN(C(=O)[C@@H]4C[C@H]4c4ccccc4)CCO5)c3)C3CCCCC3)ccc(O)c2N1 [Example 167, N-Cyclohexyl-N-(2-(2-(5-hydroxy-3-oxo-3,4-dihydro-2H-benzo[b][1,4]oxazin-8-yl)ethylamino)ethyl)-3-(3-((4-((1R,2R)-2-phenylcyclopropanecarbonyl)-1-oxa-4,9-diazaspiro[5.5]undecan-9-yl)methyl)phenethoxy)propanamide]	100	0.4	105	0.316	101
O=C1COc2c(CCNCCN(C(=O)CCOCCc3cccc(CN4CCC5(CC4)CN(C(=O)C4COc6ccccc6O4)CCO5)c3)C3CCCCC3)ccc(O)c2N1 (stereo not drawn) [Example 115, N-Cyclohexyl-3-(3-((4-(2,3-dihydrobenzo[b][1,4]dioxine-2-carbonyl)-1-oxa-4,9-diazaspiro[5.5]undecan-9-yl)methyl)phenethoxy)-N-(2-(2-(5-hydroxy-3-oxo-3,4-dihydro-2H-benzo[b][1,4]oxazin-8-yl)ethylamino)ethyl)propanamide]	126	0.6	93	0.158	100
O=C1COc2c(CCNCCN(C(=O)CCOCCc3cccc(CN4CCC5(CC4)CN(C(=O)C(O)c4ccccc4Cl)CCO5)c3)C3CCCCC3)ccc(O)c2N1 (stereo not drawn) [Example 128, 3-(3-((4-(2-(2-Chlorophenyl)-2-hydroxyacetyl)-1-oxa-4,9-diazaspiro[5.5]undecan-9-yl)methyl)phenethoxy)-N-cyclohexyl-N-(2-(2-(5-hydroxy-3-oxo-3,4-dihydro-2H-benzo[b][1,4]oxazin-8-yl)ethylamino)ethyl)propanamide]			125	1	99

Source: patent US8476265B2, “Compounds-801” (AstraZeneca AB, priority 2010, dated 2013)
